From patent US20190369122A1, “METABOLIC DISORDERS” (priority 2016, published 2019)

Experiments:
HEK293 cells = assay: Signaling in HEK293 cells (immunoblot); type: cell-based, human; details: for inhibition of imidazole propionate-induced phosphorylation of p62 and S6K1: 10 μM, 30 min pretreatment, ImP 100 μM 1 h
Description: (§1) Snap-frozen liver and harvested cells were lysed in buffer containing 50 mM Tris-HCl (pH 7.4), 150 mM NaCl, 1 mM EDTA, 1 mM Na3VO4, 20 mM NaF, 10 mM glycerophosphate, 1 mM PMSF, 10% glycerol, 1% Triton X-100 and protease inhibitor cocktail. For immunoprecipitation, the cell lysates were obtained in 0.3% CHAPS-containing lysis buffer, sonicated and centrifuged at 20,000 g for 15 min at 4° C., and the supernatant was incubated with 20 μl of anti-FLAG beads (Sigma) at 4° C. for 4 h under gentle agitation.
HEK293 cells (ATCC CRL-1573) were grown and maintained in high-glucose (4.5 g/l glucose) DMEM with 10% (v/v) FBS. […] 24 h after transfection (with plasmids or siRNA as indicated), HEK293 cells cultured in poly-L-lysine-coated 60 mm dishes were rinsed twice with DMEM without FBS and incubated in serum-free DMEM for 18 h. HEK293 cells were then washed once with EBSS and incubated in EBSS for 1 h.

p38α/p38β = details: cited from earlier work
primary hepatocytes = assay: Insulin signaling in primary hepatocytes (immunoblot); type: cell-based, mouse; details: rapamycin 20 nM, Torin 1 50 nM, ImP 100 μM
Description: as §1
Primary hepatocytes were isolated from C57BL/6J mice by digesting liver with perfusion of collagenase type IV as described previously. After perfusion, 16×10^5 cells were plated on collagen-coated 60 mm dishes in Dulbecco's modified Eagle's medium (DMEM)/F12 supplemented with fetal bovine serum (FBS), penicillin/streptomycin and 100 nM dexamethasone. After 4 h, the medium was changed to DMEM/F12 containing penicillin/streptomycin.

p38γ/p38δ = details: cited from earlier work
[1] = biological target: recombinant p62 (Abcam, ab95320), Q13501

## CC(C)C[C@H](N)C(=O)O [Leucine, reference compound]
HEK293 cells; HEK293, after only 15 min, transient
  S6K1 phosphorylation: increased
HEK293 cells; absence of amino acids
  time to mTORC1 activation: ≤ 15 min

## Oc1ccc(-c2nc(-c3ccncc3)c(-c3ccc(F)cc3)[nH]2)cc1 [SB202190]
HEK293 cells; amino acid-deprived HEK293
  inhibition of imidazole propionate-induced phosphorylation of p62 and S6K1: not
p38α/p38β
  inhibition of p38α/p38β: inhibited

## insulin: insulin from Sigma-Aldrich, used at 5 nM
HEK293 cells; HEK293, insulin 5 nM, absence of amino acids or imidazole propionate
  mTORC1 activation, as measured by S6K1 phosphorylation: did not lead to mTORC1 activation

## N[C@@H](Cc1c[nH]cn1)C(=O)O [histidine, reference compound]
HEK293 cells; amino acid-deprived HEK293, 100 μM for 1 h
  phosphorylation of p62 or S6K1: neither

## CCC(=O)N1CCN(c2ccc(-n3c(=O)ccc4cnc5ccc(-c6cnc7ccccc7c6)cc5c43)cc2C(F)(F)F)CC1 [torin 1, 1-[4-[4-(1-oxopropyl)-1-piperazinyl]-3-(trifluoromethyl)phenyl]-9-(3-quinolinyl)-benzo[h]-1,6-naphthyridin-2(1H)-one, reference compound]
Primary hepatocytes
  effect on imidazole propionate-induced S6K1 phosphorylation: reversed
  inhibition of imidazole propionate-induced reduction of IRS: inhibited

## NC1(c2ccc(-c3nc4ccn5c(=O)[nH]nc5c4cc3-c3ccccc3)cc2)CCC1 [MK2206, reference compound]
HEK293 cells
  effect on imidazole propionate-induced Akt activation: efficiently blocked
HEK293 cells; absence of amino acids
  effect on imidazole propionate-induced S6K1 phosphorylation: did not affect
HEK293 cells; presence of amino acids
  effect on imidazole propionate-induced S6K1 phosphorylation: inhibition

## Cc1ccc(-n2nc(C(C)(C)C)cc2NC(=O)Nc2ccc(OCCN3CCOCC3)c3ccccc23)cc1 [BIRB796, 1-(5-tert-butyl-2-p-tolyl-2H-pyrazol-3-yl)-3-[4-(2-morpholin-4-yl-ethoxy)naphthalen-1-yl]urea]
HEK293 cells; amino acid-deprived HEK293
  inhibition of imidazole propionate-induced phosphorylation of p62 and S6K1: inhibited
p38α/p38β
  inhibition of p38α/p38β: inhibits the entire p38 subfamily
p38γ/p38δ
  inhibition of p38γ/p38δ: inhibits the entire p38 subfamily

B1: recombinant p38γ (Abcam, ab125651) (protein)
chain: MSSPPPARSGFYRQEVTKTAWEVRAVYRDLQPVGSGAYGAVCSAVDGRTGAKVAIKKLYRPFQSELFAKRAYRELRLLKHMRHENVIGLLDVFTPDETLDDFTDFYLVMPFMGTDLGKLMKHEKLGEDRIQFLVYQMLKGLRYIHAAGIIHRDLKPGNLAVNEDCELKILDFGLARQADSEMTGYVVTRWYRAPEVILNWMRYTQTVDIWSVGCIMAEMITGKTLFKGSDHLDQLKEIMKVTGTPPAEFVQRLQSDEAKNYMKGLPELEKKDFASILTNASPLAVNLLEKMLVLDAEQRVTAGEALAHPYFESLHDTEDEPQVQKYDDSFDDVDRTLDEWKRVTYKEVLSFKPPRQLGARVSKETPL
[1]
  p62 phosphorylation (T269 and S272), in vitro kinase assay: p62 phosphorylation, at T269 and S272, was induced by p38γ in the presence of 50 µM ATP, which was further increased with 200 µM ATP
